We go through seven molecules from US8492561B2, “Azetidine derivatives as sphingosine 1-phosphate (S1P) receptor modulators” (Allergan, Inc., priority 2010, dated 2013).

The structures appear in SMILES notation.

What is called EC50 is the concentration needed to bring the measured effect to its halfway point.

T1 sequence (P21453 whole entry): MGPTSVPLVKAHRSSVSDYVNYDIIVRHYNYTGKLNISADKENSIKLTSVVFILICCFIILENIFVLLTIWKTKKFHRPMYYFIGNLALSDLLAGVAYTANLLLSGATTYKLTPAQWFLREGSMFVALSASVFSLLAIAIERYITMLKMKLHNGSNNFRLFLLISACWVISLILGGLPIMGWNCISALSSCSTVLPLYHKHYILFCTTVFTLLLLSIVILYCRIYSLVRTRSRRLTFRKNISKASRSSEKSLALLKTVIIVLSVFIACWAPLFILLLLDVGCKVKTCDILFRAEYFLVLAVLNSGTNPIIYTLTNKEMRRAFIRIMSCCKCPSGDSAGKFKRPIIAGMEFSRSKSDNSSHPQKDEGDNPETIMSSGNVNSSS

The assay has as its target T1, human S1P1 receptor (Homo sapiens, UniProt P21453).
T1 construct: expressed in transfected cells; membranes from cells stably expressing the S1P1 receptor
Description: GTP γ35S binding assay for S1P1 activity. Type of assay: biochemical. The note with it: membranes of cells stably expressing the S1P1 receptor, agonist potency. As for the experimental part: Compounds were synthesized and tested for S1P1 activity using the GTP γ^35S binding assay. These compounds may be assessed for their ability to activate or block activation of the human S1P1 receptor in cells stably expressing the S1P1 receptor.
GTP γ^35S binding was measured in the medium containing (mM) HEPES 25, pH 7.4, MgCl2 10, NaCl 100, dithiothreitol 0.5, digitonin 0.003%, 0.2 nM GTP γ^35S, and 5 μg membrane protein in a volume of 150 μl. Test compounds were included in the concentration range from 0.08 to 5,000 nM unless indicated otherwise. Membranes were incubated with 100 μM 5′-adenylylimmidodiphosphate for 30 min, and subsequently with 10 μM GDP for 10 min on ice. Drug solutions and membrane were mixed, and then reactions were initiated by adding GTP γ^35S and continued for 30 min at 25° C. Reaction mixtures were filtered over Whatman GF/B filters under vacuum, and washed three times with 3 mL of ice-cold buffer (HEPES 25, pH7.4, MgCl2 10 and NaCl 100). Filters were dried and mixed with scintillant, and counted for ^35S activity using a β-counter. Agonist-induced GTP γ^35S binding was obtained by subtracting that in the absence of agonist. Binding data were analyzed using a non-linear regression method. In case of antagonist assay, the reaction mixture contained 10 nM S1P in the presence of test antagonist at concentrations ranging from 0.08 to 5000 nM.
On the technique in general: Binding of GTPγS marks nucleotide exchange on a G protein.
`Cc1ccc(CC(C#Cc2ccc(CN3CC(C(=O)O)C3)cc2)c2cccc(Cl)c2)cc1C` (stereo not shown) [Compound 1, 1-{4-[3-(3-chlorophenyl)-4-(3,4-dimethylphenyl)but-1-yn-1 yl]benzyl}azetidine-3-carboxylic acid] registered an EC50 of 16 nM. In the case of `Cc1ccc(CC(C#Cc2ccc(CN3CC(C(=O)O)C3)cc2C)c2cccc(Cl)c2)cc1C` (stereo not shown) [Compound 2, 1-{4-[3-(3-Chloro-phenyl)-4-(3,4-dimethyl-phenyl)-but-1-ynyl]-3-methyl-benzyl}-azetidine-3-carboxylic acid] it was 607 nM; in that of `COc1cccc(C(C#Cc2ccc(CN3CC(C(=O)O)C3)cc2)Cc2ccc(C)c(C)c2)c1` (stereo not shown) [Compound 3, 1-{4-[4-(3,4-dimethylphenyl)-3-(3-methoxyphenyl)but-1-yn-1-yl]benzyl}azetidine-3-carboxylic acid], 42.3 nM; in that of `Cc1ccc(CC(C#Cc2ccc(CN3CC(C(=O)O)C3)cc2)c2ccc(Cl)cc2)cc1C` (stereo not shown) [Compound 4, 1-{4-[3-(4-chlorophenyl)-4-(3,4-dimethylphenyl)but-1-yn-1-yl]benzyl}azetidine-3-carboxylic acid], 128 nM.

`O=C(O)C1CN(Cc2ccc(C#CC(Cc3ccc(Cl)c(Cl)c3)c3cccc(F)c3)cc2)C1` (stereo not shown) [Compound 5, 1-{4-[4-(3,4-Dichloro-phenyl)-3-(3-fluoro-phenyl)-but-1-ynyl]-benzyl}-azetidine-3-carboxylic acid] registered an EC50 of 310 nM. In the case of `Cc1ccc(CC(/C=C/c2ccc(CN3CC(C(=O)O)C3)cc2)c2cccc(F)c2)cc1C` (stereo not shown) [Compound 6, 1-{4-[(1E)-4-(3,4-dimethylphenyl)-3-(3-fluorophenyl)but-1-en-1-yl]benzyl}azetidine-3-carboxylic acid] it was 58.7 nM; in that of `Cc1cccc(C(C#Cc2ccc(CN3CC(C(=O)O)C3)cc2)Cc2ccc(C)c(C)c2)c1` (stereo not shown) [Compound 7, 1-{4-[4-(3,4-dimethylphenyl)-3-(3-methylphenyl)but-1-yn-1-yl]benzyl}azetidine-3-carboxylic acid], 91.9 nM.
